# In patent US9044463B2, “FSH receptor antagonists” (Merck Sharp & Dohme B.V., priority 2011, dated 2015):
# Molecular target: T1, human FSH receptor (Homo sapiens, UniProt P23945)
# T1 construct: expressed in transfected cells; host or cells: CHO (Chinese Hamster Ovary) cells, stably transfected; cotransfected with a CRE-luciferase reporter
# T1 sequence (P23945 18-695): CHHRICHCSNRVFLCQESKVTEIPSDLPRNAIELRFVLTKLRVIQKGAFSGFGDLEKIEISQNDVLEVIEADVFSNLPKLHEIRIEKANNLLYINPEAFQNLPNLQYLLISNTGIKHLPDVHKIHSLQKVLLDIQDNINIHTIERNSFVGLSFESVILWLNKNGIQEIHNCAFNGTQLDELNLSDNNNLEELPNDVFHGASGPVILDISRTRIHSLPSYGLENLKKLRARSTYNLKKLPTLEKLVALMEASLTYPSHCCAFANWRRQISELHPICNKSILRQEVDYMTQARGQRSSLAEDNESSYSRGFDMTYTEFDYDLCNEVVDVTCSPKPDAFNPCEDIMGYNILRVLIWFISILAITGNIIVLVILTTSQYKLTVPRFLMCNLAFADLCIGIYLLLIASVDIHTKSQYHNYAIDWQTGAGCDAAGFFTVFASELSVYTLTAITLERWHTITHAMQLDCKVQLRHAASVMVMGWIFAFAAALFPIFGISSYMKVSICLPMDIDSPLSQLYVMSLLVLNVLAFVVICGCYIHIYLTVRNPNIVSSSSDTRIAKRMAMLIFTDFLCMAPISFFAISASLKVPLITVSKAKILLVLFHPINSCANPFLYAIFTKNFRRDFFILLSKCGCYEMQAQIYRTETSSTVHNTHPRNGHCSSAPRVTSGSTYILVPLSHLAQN
# Assay: Antagonistic activity at the human FSH receptor expressed in CHO cells (CRE-luciferase reporter)
# Type: cell-based
# Settings: CHO cells stably transfected with human FSH receptor and CRE-luciferase; with 49 μM recFSH; 4 hours incubation; read-out: IC50 (inhibition of recFSH-induced luciferase stimulation)
# Experimental: Antagonistic Activity of Compounds at the Human FSH Receptor Expressed in CHO Cells
# Antagonistic activity of the compounds at the human FSH receptor was determined in Chinese Hamster Ovary (CHO) cells stably transfected with the human FSH receptor and cotransfected to with a cAMP responsive element (CRE)/promoter directing the expression of a firefly luciferase reporter gene. Binding of the compounds to the Gs protein-coupled FSH receptor will result in an increase of cAMP, which in turn will induce an increased transactivation of the luciferase reporter. The cells (7,500 cells/well of a 384 well plate) were incubated in Dulbecco′ minimal essential F12 modified medium (Invitrogen), supplemented with 1 μg/ml bovine insulin, 5 μg/ml human apo-transferrin, 100 U/ml penicillin G and 100 μg/ml streptomycin with the test compounds (concentration between 0.316 nM and 10.0 μM) in duplicate together with […] recFSH (which, at this concentration in the absence of test compound, induces 80% of the maximal luciferase stimulation) in a humidified atmosphere (95%) at 5-7% CO2 and 37° C. The final concentration of DMSO was 1%. After 4 hours of incubation, plates were allowed to adjust to room temperature for 1 hour. Then, SteadyLite (PerkinElmer) solution was added to the wells and cells were allowed to lyse for at least 1 hour at room temperature. Subsequently, luciferase activity was measured in a luminescence counter. The signal is expressed as counts per second (cps). The IC50 (concentration of test compound causing half-maximal (50%) inhibition of the maximally attainable inhibition of the luciferase stimulation by the compound) and efficacy of the compounds were determined using the software program MathIQ (version 2.3, ID Business Solutions Limited).
row,Structure (SMILES),IC50 [nM]
1,"COc1cc2c(cc1OC)-c1cc(C(=O)N[C@@H](CO)Cc3c[nH]c4ccccc34)c(-c3cccc(F)c3F)cc1OC2 [Example 37, 3-(2,3-difluorophenyl)-N—((R)-1-hydroxy-3-(1H-indol-3-yl)propan-2-yl)-8,9-dimethoxy-6H-benzo[c]chromene-2-carboxamide]",< 100
2,"COc1cc2c(cc1OC)-c1cc(C(=O)N[C@@H](CO)Cc3c[nH]c4ccccc34)c(CC(C)C)cc1OC2 [Example 42, (R)—N-(1-hydroxy-3-(1H-indol-3-yl)propan-2-yl)-3-isobutyl-8,9-dimethoxy-6H-benzo[c]chromene-2-carboxamide]",< 100
3,"COc1cc2c(c(OC)c1OC)CCc1cc(-c3ccccc3F)c(C(=O)N[C@@H](CO)Cc3c[nH]c4ccccc34)cc1-2 [Example 2, 2-(2-fluorophenyl)-N—((R)-1-hydroxy-3-(1H-indol-3-yl)propan-2-yl)-6,7,8-trimethoxy-9,10-dihydrophenanthrene-3-carboxamide]",< 100
4,"COc1cc2c(cc1OC)-c1cc(C(=O)N[C@@H](CO)Cc3c[nH]c4ccccc34)c(OC(C)C)cc1OC2 [Example 34, (R)—N-(1-hydroxy-3-(1H-indol-3-yl)propan-2-yl)-3-isopropoxy-8,9-dimethoxy-6H-benzo[c]chromene-2-carboxamide]",< 100
5,"COc1cc2c(cc1OC)-c1cc(C(=O)N[C@@H](CO)Cc3c[nH]c4ccccc34)c(C=C(C)C)cc1OC2 [Example 41, (R)—N-(1-hydroxy-3-(1H-indol-3-yl)propan-2-yl)-8,9-dimethoxy-3(2-methylprop-1-enyl)-6H-benzo[c]chromene-2-carboxamide]",< 100
6,"COc1cc2c(cc1OC)-c1cc(C(=O)N[C@@H](CO)Cc3c[nH]c4ccccc34)c(-c3c(C)n[nH]c3C)cc1OC2 [Example 38, 3-(3,5-dimethyl-1H-pyrazol-4-yl)-N—((R)-1-hydroxy-3-(1H-indol-3-yl)propan-2-yl)-8,9-dimethoxy-6H-benzo[c]chromene-2-carboxamide]",< 100
7,"COc1cc2c(c(OC)c1OC)CCc1cc(-c3cccs3)c(C(=O)N[C@@H](CO)Cc3c[nH]c4ccccc34)cc1-2 [Example 4, (R)—N-(1-hydroxy-3-(1H-indol-3-yl)propan-2-yl)-6,7,8-trimethoxy-2-(thiophen-2-v)-9,10-dihydrophenanthrene-3-carboxamide]",< 100
8,"COc1cc2c(cc1OC)-c1cc(C(=O)N[C@@H](CO)Cc3c[nH]c4ccccc34)c(C(C)=C(C)C)cc1CC2 [Example 22, (R)—N-(1-hydroxy-3-(1H-indol-3-yl)propan-2-yl)-6,7-dimethoxy-2-(3-methylbut-2-en-2-yl)-9,10-dihydrophenanthrene-3-carboxamide]",< 100
9,"COCCOc1cc2c(cc1C(=O)N[C@@H](CO)Cc1c[nH]c3ccccc13)-c1cc(OC)c(OC)cc1CC2 [Example 15, (R)—N-(1-hydroxy-3-(1H-indol-3-yl)propan-2-yl)-6,7-dimethoxy-2-(2-methoxyethoxy)-9,10-dihydrophenanthrene-3-carboxamide]",100 to 1000
